Assays:
[1] = DRUGMATRIX: Phorbol Ester radioligand binding (ligand: [3H] PDBu); assay type: cell membranes, Mus musculus, ICR, Brain, Membrane; details: Not Active = under 50% inhibition at 10 µM
[2] = DRUGMATRIX: Glutamate, NMDA, Phencyclidine radioligand binding (ligand: [3H] TCP); assay type: cell membranes, Rattus norvegicus, Wistar, Cerebral cortex, Membrane; details: Not Active = under 50% inhibition at 10 µM
[3] = biological target: Sigma non-opioid intracellular receptor 1 (Homo sapiens, UniProt Q99720); assay: DRUGMATRIX: Sigma1 radioligand binding (ligand: [3H] Haloperidol); assay type: cell membranes, Jurkat, Membrane; details: jurkat; Not Active = under 50% inhibition at 10 µM
[4] = biological target: T1, C-X-C chemokine receptor type 1 (Homo sapiens, UniProt P25024); further: in other assays of this panel Not Active means under 50% inhibition at 10 µM
T1 sequence (P25024 whole entry): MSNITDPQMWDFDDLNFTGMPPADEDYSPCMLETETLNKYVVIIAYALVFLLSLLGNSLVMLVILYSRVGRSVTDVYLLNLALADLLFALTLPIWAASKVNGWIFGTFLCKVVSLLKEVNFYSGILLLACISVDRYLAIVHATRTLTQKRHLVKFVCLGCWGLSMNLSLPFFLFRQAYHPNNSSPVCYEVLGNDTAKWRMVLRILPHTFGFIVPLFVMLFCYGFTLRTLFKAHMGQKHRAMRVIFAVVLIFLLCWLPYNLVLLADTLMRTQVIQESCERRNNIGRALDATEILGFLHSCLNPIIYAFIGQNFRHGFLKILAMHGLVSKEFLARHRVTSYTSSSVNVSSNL

[5] = DRUGMATRIX: Interleukin IL-1 radioligand binding (ligand: [125I] interleukin 1beta); assay type: cell membranes, Membrane; details: nih3t3; Not Active = under 50% inhibition at 10 µM
[6] = biological target: Mitogen-activated protein kinase 14 (Homo sapiens, UniProt Q16539); parameters: species or system Escherichia coli;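 further: inhibition of p38alpha enzyme activity in a biochemical kinase assay, with myelin basic protein serving as substrate; in other assays of this panel Not Active means under 50% inhibition at 10 µM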
[7] = biological target: Tyrosine-protein kinase Fyn (Homo sapiens, UniProt P06241); assay: biochemical; assay type: cell-based, Insect cells; details: insect cells;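 further: enzymatic inhibition of Fyn kinase activity measured with Poly(Glu:Tyr) as the phosphorylation substrate; in other assays of this panel Not Active means under 50% inhibition at 10 µM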
[8] = biological target: Vascular endothelial growth factor receptor 1 (Homo sapiens, UniProt P17948); assay type: cell-based; details: huvec; further: in other assays of this panel Not Active means under 50% inhibition at 10 µM
[9] = biological target: T2, 5-hydroxytryptamine receptor 2C (Homo sapiens, UniProt P28335); assay: DRUGMATRIX: Serotonin (5-Hydroxytryptamine) 5-HT2C radioligand binding (ligand: [3H] Mesulergine); assay type: cell membranes, CHO-K1, Membrane; details: Not Active = under 50% inhibition at 10 µM; for Ki: read-out: Ki
T2 sequence (P28335 whole entry): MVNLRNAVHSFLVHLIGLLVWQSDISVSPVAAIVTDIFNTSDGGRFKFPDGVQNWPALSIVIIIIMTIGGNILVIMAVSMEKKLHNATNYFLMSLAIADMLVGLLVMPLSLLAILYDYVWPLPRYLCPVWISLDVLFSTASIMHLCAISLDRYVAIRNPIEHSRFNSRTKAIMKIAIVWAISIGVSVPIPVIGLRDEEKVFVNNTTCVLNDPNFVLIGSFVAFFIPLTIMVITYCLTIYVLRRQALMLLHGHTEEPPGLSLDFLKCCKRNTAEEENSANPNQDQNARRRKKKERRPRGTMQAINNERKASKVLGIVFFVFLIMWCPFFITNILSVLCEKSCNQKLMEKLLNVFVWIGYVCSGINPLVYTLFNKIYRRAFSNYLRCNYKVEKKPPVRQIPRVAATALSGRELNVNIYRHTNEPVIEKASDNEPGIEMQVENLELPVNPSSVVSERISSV

[10] = biological target: T3, Neutrophil elastase (Homo sapiens, UniProt P08246); assay type: tissue-based
T3 sequence (P08246 whole entry): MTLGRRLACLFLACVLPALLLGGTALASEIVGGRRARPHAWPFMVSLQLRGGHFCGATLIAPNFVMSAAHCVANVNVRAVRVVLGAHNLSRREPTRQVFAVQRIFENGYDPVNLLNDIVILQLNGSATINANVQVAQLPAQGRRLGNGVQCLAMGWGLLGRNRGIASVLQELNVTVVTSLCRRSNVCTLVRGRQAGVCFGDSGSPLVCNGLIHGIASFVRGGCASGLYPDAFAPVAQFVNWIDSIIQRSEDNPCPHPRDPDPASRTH

[11] = biological target: Insulin receptor (Rattus norvegicus, UniProt P15127); assay type: cell membranes, Wistar, Liver, Membrane; further: in other assays of this panel Not Active means under 50% inhibition at 10 µM
[12] = biological target: Delta-type opioid receptor (Homo sapiens, UniProt P41143); assay type: cell membranes, HEK293, Membrane; details: hek293; further: in other assays of this panel Not Active means under 50% inhibition at 10 µM
[13] = biological target: Tyrosine-protein kinase Lck (Homo sapiens, UniProt P06239); assay: DRUGMATRIX: Protein Tyrosine Kinase, LCK enzyme inhibition (substrate: Poly(Glu:Tyr)); assay type: cell-based, Insect cells; details: Not Active = under 50% inhibition at 10 µM
[14] = biological target: Cannabinoid receptor 1 (Homo sapiens, UniProt P21554); assay type: cell membranes, Membrane; details: chem-1; further: in other assays of this panel Not Active means under 50% inhibition at 10 µM
[15] = DRUGMATRIX: Imidazoline I2, Central radioligand binding (ligand: [3H] Idazoxan); assay type: cell membranes, Rattus norvegicus, Wistar, Cerebral cortex, Membrane; details: Not Active = under 50% inhibition at 10 µM
[16] = biological target: Beta-1 adrenergic receptor (Homo sapiens, UniProt P08588); assay: DRUGMATRIX: Adrenergic beta1 radioligand binding (ligand: [125I] Cyanopindolol); assay type: cell membranes, CHO-K1, Membrane; details: cho-k1; Not Active = under 50% inhibition at 10 µM
[17] = biological target: T4, C-X-C chemokine receptor type 2 (Homo sapiens, UniProt P25025); assay type: cell membranes, Membrane; details: cho-k1; further: in other assays of this panel Not Active means under 50% inhibition at 10 µM
T4 sequence (P25025 whole entry): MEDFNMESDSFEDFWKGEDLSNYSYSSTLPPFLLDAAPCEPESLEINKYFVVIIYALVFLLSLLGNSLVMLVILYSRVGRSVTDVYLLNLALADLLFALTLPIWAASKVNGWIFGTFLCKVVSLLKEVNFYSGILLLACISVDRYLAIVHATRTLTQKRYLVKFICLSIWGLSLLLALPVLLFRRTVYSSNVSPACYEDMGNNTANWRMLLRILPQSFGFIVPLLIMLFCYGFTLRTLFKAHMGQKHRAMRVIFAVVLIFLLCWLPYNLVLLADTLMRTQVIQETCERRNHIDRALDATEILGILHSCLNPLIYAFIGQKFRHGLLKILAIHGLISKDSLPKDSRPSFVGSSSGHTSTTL

[18] = DRUGMATRIX: Leukotriene, BLT (LTB4) radioligand binding (ligand: [3H]LTB4); assay type: cell membranes, Membrane; details: u-937; Not Active = under 50% inhibition at 10 µM

Vascular endothelial growth factor receptor 1, sequence (P17948 whole entry): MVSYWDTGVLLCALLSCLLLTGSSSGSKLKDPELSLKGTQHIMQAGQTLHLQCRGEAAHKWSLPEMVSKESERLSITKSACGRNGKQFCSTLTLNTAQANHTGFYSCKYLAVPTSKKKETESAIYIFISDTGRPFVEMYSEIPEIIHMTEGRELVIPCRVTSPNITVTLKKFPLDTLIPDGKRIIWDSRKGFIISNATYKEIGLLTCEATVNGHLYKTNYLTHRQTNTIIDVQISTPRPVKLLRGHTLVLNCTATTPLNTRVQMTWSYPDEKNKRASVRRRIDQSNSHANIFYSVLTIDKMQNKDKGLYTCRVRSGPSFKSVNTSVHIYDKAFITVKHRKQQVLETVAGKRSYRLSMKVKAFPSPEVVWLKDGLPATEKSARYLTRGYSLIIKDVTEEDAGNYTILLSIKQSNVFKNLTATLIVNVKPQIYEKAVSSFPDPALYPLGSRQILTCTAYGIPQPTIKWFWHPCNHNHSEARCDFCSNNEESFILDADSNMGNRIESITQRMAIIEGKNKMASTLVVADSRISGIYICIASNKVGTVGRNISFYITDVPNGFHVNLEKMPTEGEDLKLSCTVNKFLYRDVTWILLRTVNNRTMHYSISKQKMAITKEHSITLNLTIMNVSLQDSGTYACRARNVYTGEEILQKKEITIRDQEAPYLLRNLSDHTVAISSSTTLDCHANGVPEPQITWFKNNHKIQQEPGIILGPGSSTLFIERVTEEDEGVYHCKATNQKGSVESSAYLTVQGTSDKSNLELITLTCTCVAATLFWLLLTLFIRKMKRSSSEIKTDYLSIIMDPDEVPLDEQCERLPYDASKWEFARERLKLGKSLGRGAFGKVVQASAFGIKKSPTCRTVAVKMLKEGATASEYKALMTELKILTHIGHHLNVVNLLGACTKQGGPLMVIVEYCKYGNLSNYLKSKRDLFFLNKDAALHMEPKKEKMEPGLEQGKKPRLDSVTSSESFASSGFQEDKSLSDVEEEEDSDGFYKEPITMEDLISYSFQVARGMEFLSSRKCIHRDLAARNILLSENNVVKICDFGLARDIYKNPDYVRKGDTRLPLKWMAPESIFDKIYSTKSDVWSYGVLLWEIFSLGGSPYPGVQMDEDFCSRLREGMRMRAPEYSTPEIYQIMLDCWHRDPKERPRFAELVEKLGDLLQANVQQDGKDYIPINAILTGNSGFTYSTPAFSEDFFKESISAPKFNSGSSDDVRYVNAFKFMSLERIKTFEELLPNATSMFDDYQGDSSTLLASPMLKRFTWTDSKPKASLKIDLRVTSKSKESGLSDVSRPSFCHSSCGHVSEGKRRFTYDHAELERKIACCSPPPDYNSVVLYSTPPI
Insulin receptor, sequence (P15127 27-759 limits assumed): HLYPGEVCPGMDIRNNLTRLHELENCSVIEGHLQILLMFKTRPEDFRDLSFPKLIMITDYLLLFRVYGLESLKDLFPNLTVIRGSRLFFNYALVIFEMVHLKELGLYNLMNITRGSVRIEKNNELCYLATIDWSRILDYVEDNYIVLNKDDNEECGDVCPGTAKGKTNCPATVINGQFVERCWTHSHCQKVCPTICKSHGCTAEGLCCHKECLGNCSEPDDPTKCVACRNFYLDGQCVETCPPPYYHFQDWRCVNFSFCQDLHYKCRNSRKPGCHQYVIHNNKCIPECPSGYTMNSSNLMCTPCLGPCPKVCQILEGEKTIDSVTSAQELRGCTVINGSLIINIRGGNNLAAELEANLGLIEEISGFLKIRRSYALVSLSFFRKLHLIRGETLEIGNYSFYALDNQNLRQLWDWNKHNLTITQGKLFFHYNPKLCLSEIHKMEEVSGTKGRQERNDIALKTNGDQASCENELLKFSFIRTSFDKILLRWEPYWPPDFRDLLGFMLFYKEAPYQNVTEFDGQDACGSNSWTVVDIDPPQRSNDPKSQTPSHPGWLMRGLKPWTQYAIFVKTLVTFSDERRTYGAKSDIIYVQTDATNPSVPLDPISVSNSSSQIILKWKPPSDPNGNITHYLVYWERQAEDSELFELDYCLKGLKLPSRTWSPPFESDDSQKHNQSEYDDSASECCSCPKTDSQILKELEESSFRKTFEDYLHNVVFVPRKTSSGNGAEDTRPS
Insulin receptor, sequence (P15127 764-1383 limits assumed): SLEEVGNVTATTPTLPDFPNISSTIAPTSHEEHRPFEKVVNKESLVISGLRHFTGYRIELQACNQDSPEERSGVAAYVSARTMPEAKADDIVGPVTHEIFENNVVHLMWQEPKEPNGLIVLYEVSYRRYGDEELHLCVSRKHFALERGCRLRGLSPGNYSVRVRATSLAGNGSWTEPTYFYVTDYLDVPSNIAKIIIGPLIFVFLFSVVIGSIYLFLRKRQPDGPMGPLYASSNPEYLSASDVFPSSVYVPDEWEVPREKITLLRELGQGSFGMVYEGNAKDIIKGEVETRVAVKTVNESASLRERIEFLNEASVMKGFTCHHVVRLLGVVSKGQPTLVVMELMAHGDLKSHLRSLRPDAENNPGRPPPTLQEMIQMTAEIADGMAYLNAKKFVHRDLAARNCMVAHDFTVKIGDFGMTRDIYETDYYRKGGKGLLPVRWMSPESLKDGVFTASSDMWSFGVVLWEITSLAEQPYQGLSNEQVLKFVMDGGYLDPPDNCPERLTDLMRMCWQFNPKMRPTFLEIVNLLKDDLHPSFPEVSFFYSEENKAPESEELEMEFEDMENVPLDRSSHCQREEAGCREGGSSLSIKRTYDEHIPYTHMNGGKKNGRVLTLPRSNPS
Tyrosine-protein kinase Lck, sequence (P06239 whole entry): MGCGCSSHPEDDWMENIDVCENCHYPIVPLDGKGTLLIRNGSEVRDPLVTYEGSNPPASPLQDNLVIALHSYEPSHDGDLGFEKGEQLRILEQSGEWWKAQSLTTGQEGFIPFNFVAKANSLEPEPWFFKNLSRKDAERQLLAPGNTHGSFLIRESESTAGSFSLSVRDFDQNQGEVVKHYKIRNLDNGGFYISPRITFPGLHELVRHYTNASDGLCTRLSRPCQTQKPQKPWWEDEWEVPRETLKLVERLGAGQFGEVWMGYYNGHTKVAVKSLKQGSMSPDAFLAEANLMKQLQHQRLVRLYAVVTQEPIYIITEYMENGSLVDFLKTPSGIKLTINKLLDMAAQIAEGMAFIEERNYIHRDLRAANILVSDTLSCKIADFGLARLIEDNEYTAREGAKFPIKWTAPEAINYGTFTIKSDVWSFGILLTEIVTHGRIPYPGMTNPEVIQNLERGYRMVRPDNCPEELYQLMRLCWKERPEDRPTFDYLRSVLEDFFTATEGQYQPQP
Sigma non-opioid intracellular receptor 1, sequence (Q99720 whole entry): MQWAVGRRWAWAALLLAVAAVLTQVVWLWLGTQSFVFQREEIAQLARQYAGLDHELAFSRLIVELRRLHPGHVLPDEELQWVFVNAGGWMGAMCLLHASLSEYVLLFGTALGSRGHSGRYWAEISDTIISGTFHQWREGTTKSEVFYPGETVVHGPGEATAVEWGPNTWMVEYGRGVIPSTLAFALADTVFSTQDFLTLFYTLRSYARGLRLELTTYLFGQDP
Mitogen-activated protein kinase 14, sequence (Q16539 whole entry): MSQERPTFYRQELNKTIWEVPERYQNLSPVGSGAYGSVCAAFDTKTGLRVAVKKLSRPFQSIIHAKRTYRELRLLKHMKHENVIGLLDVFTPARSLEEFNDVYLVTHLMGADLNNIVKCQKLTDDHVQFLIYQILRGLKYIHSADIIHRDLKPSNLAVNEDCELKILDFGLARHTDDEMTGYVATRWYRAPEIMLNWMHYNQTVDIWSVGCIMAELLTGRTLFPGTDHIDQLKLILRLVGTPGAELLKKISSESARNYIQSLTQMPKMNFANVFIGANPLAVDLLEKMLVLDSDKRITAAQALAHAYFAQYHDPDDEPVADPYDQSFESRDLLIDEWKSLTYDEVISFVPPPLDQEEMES
Tyrosine-protein kinase Fyn, sequence (P06241 whole entry): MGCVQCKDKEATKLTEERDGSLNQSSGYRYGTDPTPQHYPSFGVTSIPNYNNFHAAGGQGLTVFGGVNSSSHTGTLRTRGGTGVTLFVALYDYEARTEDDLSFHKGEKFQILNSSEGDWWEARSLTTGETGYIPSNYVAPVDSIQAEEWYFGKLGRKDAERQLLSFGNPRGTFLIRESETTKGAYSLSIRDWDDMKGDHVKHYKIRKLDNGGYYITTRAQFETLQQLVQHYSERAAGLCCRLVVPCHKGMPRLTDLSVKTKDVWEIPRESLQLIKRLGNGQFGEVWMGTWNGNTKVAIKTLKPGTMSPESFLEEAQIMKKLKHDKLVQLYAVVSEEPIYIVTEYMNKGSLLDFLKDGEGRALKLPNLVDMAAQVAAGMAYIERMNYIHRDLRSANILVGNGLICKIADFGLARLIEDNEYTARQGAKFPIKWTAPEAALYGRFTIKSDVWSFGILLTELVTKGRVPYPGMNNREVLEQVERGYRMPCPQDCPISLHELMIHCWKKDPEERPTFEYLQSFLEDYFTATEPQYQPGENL
Delta-type opioid receptor, sequence (P41143 whole entry): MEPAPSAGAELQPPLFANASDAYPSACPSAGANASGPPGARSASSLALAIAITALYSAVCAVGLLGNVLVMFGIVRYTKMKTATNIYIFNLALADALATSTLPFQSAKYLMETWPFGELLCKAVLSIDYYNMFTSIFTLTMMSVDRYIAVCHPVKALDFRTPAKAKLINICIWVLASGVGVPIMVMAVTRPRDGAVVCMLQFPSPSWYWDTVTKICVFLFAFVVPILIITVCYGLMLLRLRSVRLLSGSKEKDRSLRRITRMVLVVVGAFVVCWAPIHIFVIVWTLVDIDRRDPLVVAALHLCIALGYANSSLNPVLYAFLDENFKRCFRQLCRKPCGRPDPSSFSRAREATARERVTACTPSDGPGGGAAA

SMILES | IC50 [1] | Ki [1] | IC50 [2] | Ki [2] | IC50 [3] | IC50 [4] | IC50 [5] | Ki [5] | IC50 [7] | IC50 [8] | IC50 [10] | IC50 [11] | IC50 [12] | IC50 [14] | IC50 [15] | Ki [15] | IC50 [16] | IC50 [17] | IC50 [18] | Ki [18] | other results
O=C1OC2(c3ccc(O)cc3Oc3cc(O)ccc32)c2ccccc21 [FLUORESCEIN] | Not Active | Not Active | Not Active | Not Active | Not Active | Not Active | Not Active | Not Active | Not Active | Not Active | Not Active | Not Active | Not Active | Not Active | Not Active | Not Active | Not Active | Not Active | Not Active | Not Active | IC50 [6]: Not Active; IC50 ([9]; cho-k1): Not Active; IC50 ([13]; insect cells): Not Active
CC1COc2c(N3CCN(C)CC3)c(F)cc3c(=O)c(C(=O)O)cn1c23 (stereo not drawn) [OFLOXACIN] | Not Active | Not Active | Not Active | Not Active | Not Active | Not Active | Not Active | Not Active | Not Active | Not Active | Not Active | Not Active | Not Active | Not Active | Not Active | Not Active | Not Active | Not Active | Not Active | Not Active | IC50 [6]: Not Active; IC50 ([9]; cho-k1): Not Active; IC50 ([13]; insect cells): Not Active
COc1ccc([C@@H]2Sc3ccccc3N(CCN(C)C)C(=O)[C@@H]2OC(C)=O)cc1 [DILTIAZEM] | Not Active | Not Active | Not Active | Not Active | Not Active | Not Active | Not Active | Not Active | Not Active | Not Active | Not Active | Not Active | Not Active | Not Active | Not Active | Not Active | Not Active | Not Active | Not Active | Not Active | IC50 [6]: Not Active; IC50 ([9]; cho-k1): Not Active; IC50 ([13]; insect cells): Not Active
O=C1OCCN1/N=C/c1ccc([N+](=O)[O-])o1 [FURAZOLIDONE] | Not Active | Not Active | Not Active | Not Active | Not Active | Not Active | Not Active | Not Active | Not Active | Not Active | Not Active | Not Active | Not Active | Not Active | Not Active | Not Active | Not Active | Not Active | Not Active | Not Active | IC50 [6]: Not Active; IC50 ([9]; cho-k1): Not Active; IC50 ([13]; insect cells): Not Active
CC(C)(S)[C@@H](N)C(=O)O [PENICILLAMINE] | Not Active | Not Active | Not Active | Not Active | Not Active | Not Active | Not Active | Not Active | Not Active | Not Active | Not Active | Not Active | Not Active | Not Active | Not Active | Not Active | Not Active | Not Active | Not Active | Not Active | IC50 [6]: Not Active; IC50 ([9]; cho-k1): Not Active; IC50 ([13]; insect cells): Not Active
Cc1ccccc1N1CCN(CCc2nnc3n2CCCC3)CC1 [DAPIPRAZOLE] | Not Active | Not Active | Not Active | Not Active | Not Active | Not Active | Not Active | Not Active | Not Active | Not Active | Not Active | Not Active | Not Active | Not Active | Not Active | Not Active | Not Active | Not Active | Not Active | Not Active | IC50 [6]: Not Active; IC50 ([9]; read-out: IC50): 625 nM; Ki [9]: 327 nM; IC50 ([13]; insect cells): Not Active
Oc1c(Cl)cc(Cl)cc1Sc1cc(Cl)cc(Cl)c1O [BITHIONOL] | Not Active | Not Active | Not Active | Not Active | Not Active | Not Active | Not Active | Not Active | Not Active | Not Active | Not Active | Not Active | Not Active | Not Active | Not Active | Not Active | Not Active | Not Active | Not Active | Not Active | IC50 ([6]; read-out: IC50): 318 nM; IC50 ([9]; read-out: IC50): 8780 nM; Ki [9]: 4600 nM; IC50 ([13]; read-out: IC50): 2260 nM

Reference: ChEMBL document CHEMBL1909046, “DrugMatrix in vitro pharmacology data”
